Assay results: PMC10204553, “Identification of the Binding Epitope of an Anti-Mouse CCR6 Monoclonal Antibody (C6Mab-13) Using 1× Alanine Scanning” (Antibodies, 2023)

Experiments:
[1] = test system: C6Mab-13; assay: ELISA of C6Mab-13 with immobilized alanine-substituted mCCR6 peptides; type: binding, rat; conditions: for binding of C6Mab-13 in ELISA (in words): ELISA with alanine-substituted peptides, Figure 1A; for C6Mab-13 Reactivity: ELISA, peptide immobilized at 10 µg/mL, 30 min 37 °C, C6Mab-13 10 µg/mL, OD at 655 nm
Description: Synthesized mCCR6 peptides were immobilized on Nunc Maxisorp 96-well immunoplates (Thermo Fisher Scientific Inc., Waltham, MA, USA) at 10 µg/mL for 30 min at 37 °C. After being washed with phosphate-buffered saline (PBS) containing 0.05% Tween20 (PBST; Nacalai Tesque, Inc., Kyoto, Japan), the wells were blocked with 1% bovine serum albumin (BSA)-containing PBST for 30 min at 37 °C. The plates were incubated with 10 µg/mL of C6Mab-13 for 30 min at 37 °C followed by peroxidase-conjugated anti-rat immunoglobulins (1:20,000 diluted; Sigma-Aldrich Corp.) for 30 min at 37 °C. Enzymatic reactions were conducted at room temperature using the ELISA POD Substrate TMB Kit (Nacalai Tesque, Inc.). Optical density was measured at 655 nm using an iMark microplate reader (Bio-Rad Laboratories, Inc., Berkeley, CA, USA).
Figure 1 Determination of the C6Mab-13 epitope by ELISA using alanine-substituted peptides of mCCR6. (A) Synthesized peptides of mCCR6 (10 µg/mL) were immobilized on immunoplates for 30 min at 37 °C. The plates were incubated with 10 µg/mL of C6Mab-13, followed by treatment with peroxidase-conjugated anti-rat immunoglobulins. Optical density was measured at 655 nm (OD655) using a microplate reader. (B) The schematic illustration of mCCR6 and the C6Mab-13 epitope. The C6Mab-13 epitope of mCCR6 comprises Asp11 from ELISA experiments.

[2] = test system: C6Mab-13; assay: Surface plasmon resonance (Biacore X100), C6Mab-13 immobilized on CM5 chip; type: binding, rat; conditions: KD could not be calculated
Description: The dissociation constants (KD) between C6Mab-13 and the epitope region peptides were measured using SPR. C6Mab-13 was immobilized on the CM5 sensor chip according to the manufacturer’s protocol (Cytiva, Marlborough, MA, USA). In summary, C6Mab-13 was diluted to 10 μg/mL by an acetate buffer (pH 4.0; Cytiva) and immobilized using an amine-coupling reaction. The surface of flow cell 2 of the CM5 sensor chip was treated with 1-ethyl-3-(3-dimethylaminopropyl)-carbodiimide and N-hydroxysuccinimide (NHS), followed by an injection of C6Mab-13. The unreacted NHS-ester was blocked with ethanolamine after C6Mab-13 immobilization. The KD between C6Mab-13 and mCCR6 peptides (50, 25, 12.5, 6.25, and 3.13 µM) were measured using Biacore X100 (Cytiva) at 25 °C. The buffer was filtrated with PBS containing 0.05% (v/v) Tween 20 and 0.24% (v/v) dimethyl sulfoxide (FUJIFILM Wako Pure Chemical Corporation, Osaka, Japan). The single-cycle kinetics method was used to measure the binding signals. The data were analyzed using 1:1 binding kinetics to determine the association rate constant (ka), dissociation rate constant (kd), and KD using BIAevaluation software (Cytiva).

Row | Sequence | binding of C6Mab-13 in ELISA (in words) [1] | C6Mab-13 Reactivity [1] | binding to C6Mab-13 in SPR analysis (in words) [2]
1 | MNSTESYFATDDYDNTEYYS [G9A, 1× alanine-substituted mCCR6 1–20 peptide] | bound | +++ (OD655 ≧ 0.3) | lack of binding
2 | MNSTESYFGTADYDNTEYYS [D11A, 1× alanine-substituted mCCR6 1–20 peptide] | did not react | - (OD655 < 0.1) | lack of binding
